# Data reported in the supplement of paper PMC11061612.
# What was measured:
# [1] = tested on: CHL-1 (Melanoma); assay: Bliss excess, mean over the matrix (fraction); higher = more synergy
# Outline: (§1)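 Cell lines grown in DMEM/F12 or RPMI with 10% FBS were plated in 1536-well plates and held 24 hours at 37°C, 5% CO2 before 72 hours of exposure to two-drug dose matrices, with DMSO typically at 0.2%. CellTiter-Glo 2.0 luminescence gave viability, which was converted to inhibition. Vehicle wells were set to 0 and blank wells to 1. Combination Emax is the second-highest inhibition in the matrix, and Bliss excess is the observed combination effect minus the expected EA + EB − EA·EB, where EA and EB are the single-agent effects.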
# [2] = tested on: Becker (Low Grade Glioma); assay: as above
# Outline: as §1
# [3] = tested on: RMG-I (Ovarian Carcinoma); assay: as above
# Outline: as §1
# [4] = tested on: COLO-684 (Endometrial Carcinoma); assay: as above
# Outline: as §1
# [5] = tested on: SK-MM-2 (Plasma Cell Myeloma); assay: as above
# Outline: as §1
# [6] = tested on: NCI-H810 (Non-Small Cell Lung Carcinoma); assay: as above
# Outline: as §1
# [7] = tested on: EB-3 (Burkitt's Lymphoma); assay: as above
# Outline: as §1
# [8] = tested on: KYM-1 (Rhabdomyosarcoma); assay: as above
# Outline: as §1
# [9] = tested on: NCI-H1755 (Lung Adenocarcinoma); assay: as above
# Outline: as §1
# [10] = tested on: SW684 (Other Solid Carcinomas); assay: as above
# Outline: as §1
# [11] = tested on: LOUCY (T-Lymphoblastic Leukemia); assay: as above
# Outline: as §1
# [12] = tested on: OV-90 (Ovarian Carcinoma); assay: as above
# Outline: as §1
# [13] = tested on: FLO-1 (Esophageal Adenocarcinoma); assay: as above
# Outline: as §1
# [14] = tested on: LAMA-84 (Chronic Myelogenous Leukemia); assay: as above
# Outline: as §1
# [15] = tested on: CML-T1 (Chronic Myelogenous Leukemia); assay: as above
# Outline: as §1
# [16] = tested on: PC-14 (Lung Adenocarcinoma); assay: as above
# Outline: as §1
# [17] = tested on: KYSE-70 (Esophageal Squamous Cell Carcinoma); assay: as above
# Outline: as §1
# [18] = tested on: NKM-1 (Acute Myeloid Leukemia); assay: as above
# Outline: as §1
# [19] = tested on: PANC-02-03 (Pancreatic Carcinoma); assay: as above
# Outline: as §1
# [20] = tested on: HCC-44 (Lung Adenocarcinoma); assay: as above
# Outline: as §1
# [21] = tested on: CHL-1 (Melanoma); assay: combination Emax (second highest fraction inhibited in the dose matrix, 72 h); higher = more inhibition; extreme values may be limits of the assay
# Outline: as §1
# [22] = tested on: Becker (Low Grade Glioma); assay: as above
# Outline: as §1
# [23] = tested on: RMG-I (Ovarian Carcinoma); assay: as above
# Outline: as §1
# [24] = tested on: COLO-684 (Endometrial Carcinoma); assay: as above
# Outline: as §1
# [25] = tested on: SK-MM-2 (Plasma Cell Myeloma); assay: as above
# Outline: as §1
# [26] = tested on: NCI-H810 (Non-Small Cell Lung Carcinoma); assay: as above
# Outline: as §1
# [27] = tested on: EB-3 (Burkitt's Lymphoma); assay: as above
# Outline: as §1
# [28] = tested on: KYM-1 (Rhabdomyosarcoma); assay: as above
# Outline: as §1
# [29] = tested on: NCI-H1755 (Lung Adenocarcinoma); assay: as above
# Outline: as §1
# [30] = tested on: SW684 (Other Solid Carcinomas); assay: as above
# Outline: as §1
# [31] = tested on: LOUCY (T-Lymphoblastic Leukemia); assay: as above
# Outline: as §1
# [32] = tested on: OV-90 (Ovarian Carcinoma); assay: as above
# Outline: as §1
# [33] = tested on: FLO-1 (Esophageal Adenocarcinoma); assay: as above
# Outline: as §1
# [34] = tested on: LAMA-84 (Chronic Myelogenous Leukemia); assay: as above
# Outline: as §1
# [35] = tested on: CML-T1 (Chronic Myelogenous Leukemia); assay: as above
# Outline: as §1
# [36] = tested on: PC-14 (Lung Adenocarcinoma); assay: as above
# Outline: as §1
# [37] = tested on: KYSE-70 (Esophageal Squamous Cell Carcinoma); assay: as above
# Outline: as §1
# [38] = tested on: NKM-1 (Acute Myeloid Leukemia); assay: as above
# Outline: as §1
# [39] = tested on: PANC-02-03 (Pancreatic Carcinoma); assay: as above
# Outline: as §1
# [40] = tested on: HCC-44 (Lung Adenocarcinoma); assay: as above
# Outline: as §1
# 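Throughout, for Bliss excess, mean over the matrix: after 72 h of two-drug dosing.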
Structure (SMILES),Bliss excess [1],Bliss excess [2],Bliss excess [3],Bliss excess [4],Bliss excess [5],Bliss excess [6],Bliss excess [7],Bliss excess [8],Bliss excess [9],Bliss excess [10],Bliss excess [11],Bliss excess [12],Bliss excess [13],Bliss excess [14],Bliss excess [15],Bliss excess [16],Bliss excess [17],Bliss excess [18],Bliss excess [19],Bliss excess [20],combination Emax [21],combination Emax [22],combination Emax [23],combination Emax [24],combination Emax [25],combination Emax [26],combination Emax [27],combination Emax [28],combination Emax [29],combination Emax [30],combination Emax [31],combination Emax [32],combination Emax [33],combination Emax [34],combination Emax [35],combination Emax [36],combination Emax [37],combination Emax [38],combination Emax [39],combination Emax [40]
"CC1(C)CCC(CN2CCN(c3ccc(C(=O)NS(=O)(=O)c4ccc(NCC5CCOCC5)c([N+](=O)[O-])c4)c(Oc4cnc5[nH]ccc5c4)c3)CC2)=C(c2ccc(Cl)cc2)C1 [Venetoclax] + CS(=O)(=O)CCNCc1ccc(-c2ccc3ncnc(Nc4ccc(OCc5cccc(F)c5)c(Cl)c4)c3c2)o1 [Lapatinib] (first compound max 1 µM, 7x7, partner max 10 µM)",0.0208,-0.0179,0.0483,-0.0236,0.0104,-0.065,-0.0478,-0.0027,-0.031,-0.0757,0.0911,-0.0522,-0.0279,-0.0046,0.0154,-0.013,-0.0418,0.108,-0.0113,-0.0326,0.528,0.147,0.493,0.343,1,0.181,0.568,0.291,0.262,0.112,1,0.149,0.318,0.182,0.539,0.909,0.145,0.764,0.294,0.226
"N#Cc1cnc(Nc2cc(NC[C@H]3CNCCO3)c(C(F)(F)F)cn2)cn1 [SRA737] + O=c1[nH]cc(F)c(=O)[nH]1 [5-Fluorouracil] (first compound max 10 µM, 7x7, partner max 20 µM)",-0.0351,0.0222,-0.0735,-0.0334,-0.034,-0.0924,-0.0561,-0.0559,0.0078,-0.0315,-0.0122,-0.0306,0.0266,-0.057,-0.0498,-0.0109,-0.0214,-0.0812,0.0463,0.125,0.494,0.644,0.106,0.644,0.473,0.427,0.624,0.927,0.679,0.273,0.911,0.247,0.803,0.913,0.994,0.696,0.196,0.919,0.407,0.861
"C=CCn1c(=O)c2cnc(Nc3ccc(N4CCN(C)CC4)cc3)nc2n1-c1cccc(C(C)(C)O)n1 [AZD1775] + CCc1c2c(nc3ccc(O)cc13)-c1cc3c(c(=O)n1C2)COC(=O)[C@]3(O)CC [SN-38] (first compound max 1 µM, partner max 0.3 µM)",0.0518,-0.0094,-0.0848,-0.0122,0.0271,-0.0454,-0.0467,-0.0535,0.0139,0.0144,0.0229,-0.101,0.0261,-0.0202,-0.002,-0.0001,-0.0358,0.0008,0.0042,0.0458,0.833,0.903,0.524,0.906,0.794,0.634,0.884,0.958,0.827,0.493,0.995,0.537,0.897,0.993,1,0.929,0.599,0.997,0.706,0.935
"Cc1nc(-c2cn3c(n2)-c2ccc(-c4cnn(C(C)(C)C(N)=O)c4)cc2OCC3)n(C(C)C)n1 [Taselisib] + O=C(Nc1ccc2[nH]nc(-c3ccncc3)c2c1)[C@@H]1CCN(CC(=O)N2CCN(c3ccc(-c4ncccn4)cc3)CC2)C1 [SCH772984] (first compound max 10 µM, 7x7, partner max 5 µM)",0.0652,0.0868,-0.0455,-0.0183,0.0166,-0.0601,0.0114,0.0003,0.0655,0.0283,0.0209,0.0451,0.115,0.11,0.0342,0.133,0.0674,0.0911,0.126,0.0906,0.575,0.757,0.599,0.63,0.349,0.104,0.493,0.671,0.991,0.823,0.627,0.827,0.737,0.999,0.493,0.973,0.686,1,0.906,0.983
"C=CCn1c(=O)c2cnc(Nc3ccc(N4CCN(C)CC4)cc3)nc2n1-c1cccc(C(C)(C)O)n1 [AZD1775] + Nc1ccn([C@@H]2O[C@H](CO)[C@@H](O)C2(F)F)c(=O)n1 [Gemcitabine] (first compound max 1 µM, partner max 0.3 µM)",0.0089,0.0271,-0.0608,-0.0674,0.0664,-0.0695,0.0105,0.0009,0.0304,-0.0333,0.108,-0.0166,0.0955,0.0286,0.0273,0.0198,-0.002,0.0002,0.0035,0.0711,0.725,0.584,0.401,0.718,0.623,0.828,0.811,0.999,0.786,0.382,0.995,0.555,0.904,0.963,0.998,0.917,0.565,1,0.588,0.916
"C[C@@H](Oc1cc(-c2cnn(C3CCNCC3)c2)cnc1N)c1c(Cl)ccc(F)c1Cl [Crizotinib] + Cn1cnc2c(F)c(Nc3ccc(Br)cc3Cl)c(C(=O)NOCCO)cc21 [Selumetinib] (first compound max 10 µM, 7x7, partner max 10 µM)",-0.0464,0.0409,0.0091,-0.0629,-0.0442,-0.123,-0.0834,-0.0202,-0.006,-0.0262,-0.0249,0.0569,0.031,0.0176,-0.0165,-0.0183,-0.0364,-0.0543,-0.0458,-0.0103,0.0893,0.661,0.59,0.452,0.377,0.212,0.625,0.92,0.983,0.39,0.724,0.742,0.878,1,0.957,0.89,0.255,0.906,0.713,0.916
"N#Cc1cnc(Nc2cc(NC[C@H]3CNCCO3)c(C(F)(F)F)cn2)cn1 [SRA737] + C=CCn1c(=O)c2cnc(Nc3ccc(N4CCN(C)CC4)cc3)nc2n1-c1cccc(C(C)(C)O)n1 [AZD1775] (first compound max 10 µM, partner max 1 µM)",0.0512,0.176,-0.0477,0.0602,0.0284,0.0718,0.0314,0.0382,-0.0377,-0.0677,0.138,-0.0401,-0.0189,0.0718,0.0611,0.0602,0.0613,0.0732,-0.0172,0.0685,0.837,0.705,0.35,0.864,0.452,0.81,0.798,0.947,0.77,0.277,1,0.425,0.803,0.943,1,0.882,0.561,0.976,0.42,0.732
